Reference: patent publication US20210386791A1, “METHODS OF CELLULAR REPROGRAMMING” (TissueTech, Inc., priority 2018, published 2021)

Test system: human corneal fibroblasts (HCF)
Assay: Time course of nuclear translocation (CD44-ICD, TAK1, JNK1, Cyclin D1, p75NTR) and CD44 immunoprecipitation in HCF treated with HC-HA/PTX3±TGFβ1±inhibitors
Assay type: cell-based
Settings: HC-HA/PTX3+TGFβ1 with inhibitor 10 μM; for nuclear translocation of CD44-ICD at 5 min: immunostaining and Western blotting
Experimental: Human corneal fibroblasts (P3) were seeded on plastics with or without immobilized HC-HA/PTX3 complex for 72 h in DMEM+10% FBS, then serum starved for 24 h and treated with or without TGFβ1 for 24 h before being harvested for mRNA quantitation or immunostaining. For determination of protein of TGFβ receptor or p75NTR, the cells were treated with or without TGF-β1 for 48 h before collection of protein samples because the protein expression lags behind mRNA expression. For TGF-β1 ELISA, the cells were treated with or without TGF-β1 for 24 h, and then cultured in the fresh medium for another 24 h. The supernatants were collected for TGFβ1 ELISA. For TGFβ2 and TGFβ3 ELISA, the cells were treated with or without TGFβ1 for 48 h. Certain HCF were seeded on glass in DMEM+10% FBS for 24 h, then in DMEM+ITS (insulin-transferrin-selenium) for 24 h, treated with/without PBS or hyaluronic acid (HA) or HC-HA/PTX3±TGFβ1 (10 ng/ml)±Marimastat (10 μM) or ±DAPT (10 μM) or ±both for 0, 5, 15, 30 and 45 minutes before being harvested for immunostaining of CD44-ICD, JNK1, Cyclin D1 and p75NTR and for 5 minutes before being harvested for Western blotting of cytoplasmic and nuclear CD44-ICD, active MT1-MMP, and active γ-secretase after compartmental separation of the cellular components.
HCF, induced human corneal endothelial cells (HCEC), and HCEC monolayer cultures were air-dried and fixed in 4% formaldehyde, pH 7.0, for 15 min at room temperature, rehydrated in PBS, incubated with 0.2% Triton X-100 for 15 min, and rinsed three times with PBS for 5 min each. After incubation with 2% BSA to block non-specific staining for 30 min, they were incubated with the desired first antibody (all at 1:50 dilution) for 16 h at 4° C. After three washes with PBS, they were incubated with corresponding Alexa-Fluor-conjugated secondary IgG (all 1:100 dilutions) for 60 min. The samples were then counterstained with Hoechst 33342 and analyzed with Zeiss LSM 700 confocal microscope (Thornhood, N.Y.). Corresponding mouse and rabbit sera were used as negative controls for primary monoclonal and polyclonal antibodies, respectively.
The native CD44 protein was immune-precipitated by Immunoprecipitation Kit (Abcam, ab206996) with CD44 antibody (Abcam, ab157107) following the vendor's instructions.
Cell lysates were prepared in radioimmunoprecipitation assay (RIPA) buffer or non-denature lysis buffer and resolved on 4-15% (w/v) gradient acrylamide gels for Western blotting. […] Immunoreactive proteins were detected with Western Lighting Chemiluminesence.

| Structure (SMILES) | nuclear translocation of TAK1, JNK1, Cyclin D1 and p75NTR at later time points | nuclear translocation of CD44-ICD at 5 min |
| --- | --- | --- |
| C[C@H](NC(=O)Cc1cc(F)cc(F)c1)C(=O)N[C@H](C(=O)OC(C)(C)C)c1ccccc1 [DAPT] | inhibited | inhibited |
| CNC(=O)[C@@H](NC(=O)[C@H](CC(C)C)[C@H](O)C(=O)NO)C(C)(C)C [Marimastat] | inhibited | inhibited |
